In a melting point compilation (Tetko et al.; mined from patent text by program, amines drawn as free bases though some values may be those of a salt) one finds melting point data, which are given here for 66 compounds.

A word on the melting point: it is the temperature of the solid-liquid transition.

Molecules are shown by their SMILES.

Compound `Nc1ccc(Br)cc1CO` registered a melting point of 107 to 110 °C. For the compound `CCCS(=O)(=O)c1cccnc1S(=O)(=O)NC(=O)Nc1nc(OC)cc(OC)n1`, the melting point fell in the range of 168 to 170 °C.

Regarding `COc1ccc2c(-c3ccccc3)csc2c1`, the melting point lay within 58 to 59 °C.

In turn, `O=C(Nc1ccc(-c2c[nH]c(=O)cn2)cc1)c1ccncc1` gave a melting point of 303 to 308 °C. For `COC(=O)c1cc(-c2ccccc2)c(=O)n2ncc3ccccc3c12`, the melting point lay within 174 to 175 °C. Take `CN1C(=O)C(C(=O)Nc2ccc(Cl)c(Cl)c2)Sc2ccccc21` (stereo unspecified): the melting point was 191 to 193 °C. As for `CCOCCCOc1ccc(-c2ccc3c(c2)C=C(C(=O)OC)CCN3C(=O)OC(C)(C)C)cc1`, the melting point lay in the range of 125 to 128 °C. As for `CC(C)(C)OC(=O)CCc1cccc(-c2nc(=O)c3ccc(F)cc3s2)n1`, the melting point fell in the range of 158 to 160 °C.

In turn, `CC1(C(=O)O)CCc2c(-c3ccc(Cl)cc3)noc2C1` (stereo unspecified) returned a melting point of 169 to 170 °C. In turn, `O=C1NC(=O)C(S(=O)(=O)c2ccccn2)S1` (stereo unspecified) had a melting point of 129 to 131 °C. For `CNc1cc(CC2(C)CC3C(=C(C)C(C)=C(N)C3C)O2)ccc1-c1ccn[nH]1` (stereo unspecified) the value was 113 to 117 °C; for `CNC1CC=C(c2c[nH]c3ccc(NC(=N)c4cccs4)cc23)CC1` (stereo unspecified), 167 to 169 °C.

As to `CCOC(=O)c1ccc(/C=C(\C)C=O)c(OC)c1`, the melting point fell in the range of 59 to 61 °C.

In the case of `Cn1nnnc1-c1cn(C)c2cc(N3CCOCC3)ccc2c1=O`, the melting point lay in the range of 235 to 238 °C. Compound `COC(CN(C)C(=O)Nc1nnc(C(C)Oc2ccccc2Cl)s1)OC` (stereo unspecified) returned a melting point of 101 to 104 °C. The compound `CCCCc1oc2ccc(C#N)cc2c1C(=O)c1ccc(O)cc1` showed a melting point of 152 to 153 °C. Under `O=C1c2ccccc2C(=S)N1C1CC=CCC1` (stereo unspecified) stands 93 °C; under `COc1ccc(NC(=O)C2C(=O)N(C)C(=S)N(C)C2=O)cc1Oc1ccc(C(F)(F)F)cc1Cl`, 165 to 168 °C; under `Nc1c(NCCCOc2cccc(CO)c2)c(=O)c1=O`, 207 to 212 °C. Under `CC(=O)NNc1ccc(NC(=S)Nc2ccccc2)cc1` stands 205 to 207 °C; under `CCCCOc1nccnc1C1(O)CN2CCC1CC2` (stereo unspecified), 107 to 108 °C. Compound `CCOC(=O)C(=C(c1ccc(F)cc1)c1ccc(F)cc1)n1nnnc1-c1ccccc1` came in with a melting point of 149 to 150 °C. Under `CCNC(=O)Nc1cnc2ccc(Nc3ccc(C)cc3)nc2n1` stands 235 °C. Under `Cc1ccccc1-c1cc(-n2cncn2)ncc1C(=O)N(C)Cc1cc(C(F)(F)F)cc(C(F)(F)F)c1` stands 91 to 93 °C. `Cc1ccc(C(=O)NC2CC2)cc1-c1cc2cnc(NC3CCOCC3)nc2n(C)c1=O` came in with a melting point of 239 to 241 °C. For `COc1ccc([N+](=O)[O-])c(C=O)c1OC` the value was 106 to 108 °C; for `COc1cc(-c2cnc(N[N+](=O)[O-])[nH]c2=O)ccn1`, 194 to 196 °C. Under `CCCCc1c(C)cc(C)cc1O` stands 65 to 67 °C; under `NCC1(C(=O)O)CC(c2ccccc2)Cc2c(O)cccc21` (stereo unspecified), 110 to 112 °C. For `O=C1CCC(c2ccccc2)(c2ccccc2)C2CN(C(Cc3ccccc3)=NCc3ccccc3F)CC12` (stereo unspecified) the value was 160 °C; for `CCn1cc(C(=O)O)c(=O)c2cc(F)c(N3C[C@@H](N)[C@@H]3C)cc21` (relative stereo), 232 to 235 °C. As for `CN(CCCNC(=O)NCCCOc1cccc(CN2CCCCC2)c1)CCC(c1ccc(F)cc1)c1ccccn1` (stereo unspecified), the melting point lay in the range of 65 to 67 °C. As to `CC(C)(NCC(F)(F)CN)C(CCn1ccnc1[N+](=O)[O-])=NO`, the melting point was in the range of 112 to 114 °C. With `Fc1cc(CC2(Cc3ccncc3)c3ccccc3Oc3ccccc32)ccn1`, the melting point lay within 180 to 181 °C. As to `c1csc(NCCc2c[nH]cn2)n1`, the melting point lay in the range of 198 to 199 °C.

For `NC(C(=O)O)c1ccc(C(=O)O)cc1SCc1ccccc1` (stereo unspecified), the melting point turned out to be 226 °C. Take `NC(=O)C1CCN(C(=O)c2ccc(NCc3cnc4nc(N)nc(N)c4n3)cc2)CC1`: the melting point is greater than 300 °C. For the compound `O=C1NCn2c3ccccc3c(=O)c3cccc1c32`, the melting point was in the range of 250 to 255 °C. With `CC(C)(C)OC(=O)Nc1ccc(F)c(F)c1`, the melting point was 135 to 137 °C. For `CCc1cnc(-n2cc(CCCO)c(C(C)C)n2)nc1` the value was 70 to 71 °C. Compound `CNCC(O)c1ccc(Br)cc1` (stereo unspecified) registered a melting point of 91.5 to 93.7 °C. For the compound `CNCC(O)c1ccc(C)o1` (stereo unspecified), the melting point lay in the range of 40 to 45 °C. Under `COC=C(C(=O)OC)c1cccc([N+](=O)[O-])c1` stands 101 to 103 °C; under `O=c1[nH]c2cc(Cl)ccc2c(O)c1-c1ccc(Oc2ccccc2)cc1`, 274 to 276 °C. `COC(=O)c1ccc(NC(=O)c2cc(C(C)C)c(C(C)C)s2)cc1F` gave a melting point of 146 to 147 °C. Under `COc1cc(C2CCN(CCO)CC2O)ccc1Nc1ncc2ccc(-c3ccccc3OC)n2n1` (stereo unspecified) stands 88 to 96 °C; under `CCOC(=O)C1=C(C)NC(C)=C(C(=O)OCC)C1c1cc(Br)ccc1F`, 118 to 119 °C; under `CN1C=C(N2CCCC2)c2ccc3ccccc3c2S1(=O)=O`, 176 to 178 °C. For the compound `O=S(=O)(Nc1cc(Cl)sc1Cl)c1cc(-c2ncc(C(F)(F)F)cc2Cl)ccc1Cl`, the melting point lay in the range of 106 to 108 °C. Consider `CC(C)n1nc(-c2c(Oc3ccccc3)nc(N)nc2-c2ccccc2)ccc1=O`, for which the melting point lay in the range of 218 to 221 °C. Compound `CCC(Cl)C(=O)Nc1c(C(=O)CC(=O)Nc2ccccn2)cccc1C(F)(F)F` (stereo unspecified) came in with a melting point of 137 °C. Under `CSc1sc(C(=O)O)c2c1-c1sc(C(=O)O)cc1CC2` stands greater than 300 °C; under `Nc1cccc(SC(CCc2ccc(Cl)cc2)Cn2ccnc2)c1` (stereo unspecified), 89 to 91 °C. Under `C=Cc1nc2cc(Br)ccc2o1` stands 55 to 56 °C; under `CS(=O)(=O)Nc1ccc(C#N)cc1C(O)c1ccc(F)cc1F` (stereo unspecified), 133 to 135 °C; under `CS(=O)(=O)OCC(C(=O)N1CCC(=C2c3ccc(Cl)cc3CCc3cccnc32)CC1)c1ccccc1` (stereo unspecified), 111 to 112 °C.

On to `Cc1ccc(C(=O)c2cc(-c3ccc(Cl)cc3)c(N3CCOCC3)s2)cc1`, for which the melting point came to 190 °C. For `Fc1ccc(-c2ncn(C3CCN4CCCC4C3)c2-c2ccncc2)cc1` (stereo unspecified) the value was 187 to 189 °C; for `COc1cc2c(cc1Cl)C(C)(C)C(CC=O)C2=O` (racemic), 102 to 103 °C. On to `CC(C)C(c1ccc(N)cc1)c1cccnc1` (stereo unspecified), for which the melting point was determined as 102 °C. Under `OCCCC#Cc1ccc2ccccc2c1` stands 37 to 38 °C. Consider `CCNC(=O)n1ccc2ccccc21`, for which the melting point lay in the range of 71 to 73 °C. For `COc1ccc(CCN2CCC(C(O)(c3cccs3)c3cccs3)CC2)cc1` the value was 153 to 155 °C; for `O=C(O)CS(=O)c1ccc2c(-c3ccccc3F)noc2c1` (stereo unspecified), 165 to 166 °C. Under `CCC(=O)C1=C(O)CC(c2c(C)c(C)c3c(c2C)OC(C)(C)C3)CC1=O` (stereo unspecified) stands 74 to 76 °C. Under `COc1cc(NC(=S)Nc2ccccc2)ccn1` stands 138 to 141 °C.
